Assay results as given in patent publication US7943577B2, “Alpha-fetoprotein peptides and uses thereof” (Albany Medical College, priority 2001, dated 2011).
Entries after “also recorded” stand apart in the source; their conditions may differ. Square brackets hold non-standard residues; d marks the D form. Ends that are not written are not given here. Hyp = O=C(O)[C@@H]1C[C@@H](O)CN1

Columns and labels:
[1] = tested on: MCF-7 breast cancer cells; settings: ERα-positive breast cancer (MCF-7) cells; Background of Example IV; cited from earlier work
[2] = tested on: human breast cancer lines; settings: DeFreest et al., J Pept Res 63:409-419, 2004; cited from earlier work
[3] = tested on: immature mouse uterus; test: Immature mouse uterine growth assay; assay type: in vivo; settings: for biological activity of gel filtration fraction of aged peptide: 1 μg i.p.; for uterotrophic effect of agent alone: peptide even at a dose of 10 μg/mouse, FIG. 13a; for inhibition of the uterotrophic effect of estradiol: Pep 1 μg i.p. one hour before E2 0.5 μg i.p.; for inhibition of the uterotrophic effect of estradiol / inhibition of the uterotrophic effect of tamoxifen: FIG. 13b; for inhibition of the uterotrophic effect of tamoxifen: Pep 1 μg i.p. one hour before Tam 1.0 μg i.p.
Experimental: Immature Mouse Uterine Growth Assay.
Differences between groups were evaluated, employing the non-parametric Wilcoxon Sum of Ranks test (one-sided).

[4] = tested on: MCF-7 human breast cancer xenografts; test: Human breast cancer xenograft assay, MCF-7; assay type: in vivo; settings: for tumor volumes versus E2 alone group (Wilcoxon ranks-sum test): MCF-7, day 30 (FIG. 7: 20 days and 30 days) after tumor implantation, p<0.05; for growth (tumor volume) of MCF-7 xenografts in E2-supplemented SCID mice: peptide 1 μg i.p. twice a day, tamoxifen 50 μg i.p. once a day, 30-day observation
Experimental: Human Breast Cancer Xenograft Assay. A bioassay for anti-breast cancer activity was performed according to Bennett et al. (23;24). Confluent MCF-7 human breast cancer cells were trypsinized into suspension and pelleted by centrifugation at 200×g. The pellet was then solidified into a fibrin clot by exposing it to 10 μl of fibrinogen (50 mg/ml) and 10 μl of thrombin (50 units/ml). The solid mass of MCF-7 cells was then cut into pieces 1.5 mm in diameter. A tumor segment of ˜1.5 mm in diameter was implanted under the kidney capsule of an immunodeficient ICR-SCID male mouse (Taconic Farms) that weighed about 25 g. Estrogen supplementation was accomplished by s.c. implantation of a silastic tubing capsule containing solid E2 inserted on the day of tumor implantation. Peptide was injected i.p. every twelve hours at a dose of 1 μg per mouse. Tumor growth was monitored during survival laparotomy at 10 day intervals by measurement of the diameters of the short (d) and long axes (D) of each tumor, using a dissecting microscope equipped with an ocular micrometer. Tumor volumes were calculated using the formula (π/6) (d)^2D, assuming the tumor shape to be an ellipsoid of revolution around its long axis (D). There were five to seven replicate mice included in each treatment group. Mean tumor volume±standard error in each group was calculated for display of growth curves. Significance of differences between groups were tested using the one-sided Wilcoxon Sum of Ranks Test.

[5] = tested on: MCF-7/Tam human breast cancer xenografts; test: Human breast cancer xenograft assay, tamoxifen-resistant MCF-7 subline; assay type: in vivo; settings: for growth (tumor volume) of tamoxifen-resistant MCF-7 subline xenografts in E2-supplemented SCID mice: peptide 1 μg i.p. twice a day, tamoxifen 50 μg i.p. once a day, 30-day observation
Experimental: (§1) Cell Lines. T47D and MDA-231 human breast cancer cell lines were purchased from the American Type Culture Collection (Manassas, Va.). Growth medium for T47D cells consisted of RPMI 1640 (Life Technologies, Germantown, Md.) supplemented with 10% fetal bovine serum (Life Technologies) and 8 μg/ml bovine insulin (Sigma, St. Louis, Mo.). […] The MCF-7 cell line was obtained from Dr. Alberto C. Baldi, Institute of Experimental Biology and Medicine, Buenos Aires, Argentina, and was maintained as previously described by Gierthy et al. (1991). […] Human Breast Cancer Xenograft Assay. A bioassay for anti-breast cancer activity was performed according to Bennett et al. (23;24). […] The pellet was then solidified into a fibrin clot by exposing it to 10 μl of fibrinogen (50 mg/ml) and 10 μl of thrombin (50 units/ml). The solid mass of MCF-7 cells was then cut into pieces 1.5 mm in diameter. A tumor segment of ˜1.5 mm in diameter was implanted under the kidney capsule of an immunodeficient ICR-SCID male mouse (Taconic Farms) that weighed about 25 g. […] Peptide was injected i.p. every twelve hours at a dose of 1 μg per mouse. Tumor growth was monitored during survival laparotomy at 10 day intervals by measurement of the diameters of the short (d) and long axes (D) of each tumor, using a dissecting microscope equipped with an ocular micrometer. […] There were five to seven replicate mice included in each treatment group. Mean tumor volume±standard error in each group was calculated for display of growth curves. Significance of differences between groups were tested using the one-sided Wilcoxon Sum of Ranks Test.

[6] = tested on: T47D human breast cancer xenografts; test: Human breast cancer xenograft assay, T47D; assay type: in vivo; settings: for growth (tumor volume) of T47D xenografts in E2-supplemented SCID mice: peptide 1 μg i.p. twice a day, 30-day observation
Experimental: as §1

[7] = tested on: MDA-MB-231 human breast cancer xenografts; test: Human breast cancer xenograft assay, MDA-MB-231; assay type: in vivo; settings: for growth (tumor volume) of ER− MDA-MB-231 xenografts: peptide 1 μg i.p. twice a day, tamoxifen 50 μg i.p. once a day, 30-day observation
Experimental: as §1

[8] = in vivo; cited from earlier work
[9] = molecular target: T1, estrogen receptor (rabbit uterine cytosol) (Oryctolagus cuniculus, UniProt G1SML6); test: Assessment of estrogen receptor antagonism ([3H]estradiol binding)
T1 sequence (G1SML6 1-598): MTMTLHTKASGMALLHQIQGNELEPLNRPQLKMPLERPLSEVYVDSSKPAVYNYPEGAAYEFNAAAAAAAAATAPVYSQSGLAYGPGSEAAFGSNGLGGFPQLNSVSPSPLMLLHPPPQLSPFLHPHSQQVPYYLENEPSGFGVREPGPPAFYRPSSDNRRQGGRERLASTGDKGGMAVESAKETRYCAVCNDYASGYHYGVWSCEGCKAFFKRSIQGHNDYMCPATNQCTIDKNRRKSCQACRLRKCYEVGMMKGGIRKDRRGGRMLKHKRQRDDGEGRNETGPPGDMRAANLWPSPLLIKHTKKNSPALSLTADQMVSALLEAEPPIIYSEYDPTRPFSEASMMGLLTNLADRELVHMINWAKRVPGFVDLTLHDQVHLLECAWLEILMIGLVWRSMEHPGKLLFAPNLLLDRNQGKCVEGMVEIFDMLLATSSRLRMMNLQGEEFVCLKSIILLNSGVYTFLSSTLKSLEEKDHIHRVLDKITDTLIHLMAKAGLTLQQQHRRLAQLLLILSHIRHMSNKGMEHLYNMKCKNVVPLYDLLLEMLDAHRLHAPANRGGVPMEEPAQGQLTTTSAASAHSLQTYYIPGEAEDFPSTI
Experimental: Assessment of Estrogen Receptor Antagonism. Commercially obtained rabbit uteri (Pel-Freez Biological, Rogers, A R) were used as a source of estrogen receptor. Uteri were pulverized in a stainless steel impact mortar under liquid nitrogen and homogenized (20% w/v) in assay buffer (10 mM Tris (pH 7.4), 1.5 mM EDTA, 10% glycerol, 10 mM monothioglycerol, and 10 mM sodium molybdate] on ice. Centrifugation (50,000×g) for 1 h yielded a supernatant containing cytosol, which was adjusted with assay buffer to 2.5 mg protein/ml. All incubations were carried out in triplicate, each containing 100 μl of cytosol, 20 μl of […] 6,7-[3H]estradiol (50 Ci/mmol; DuPont Pharmaceuticals Company, Wilmington, Del., U.S.A.), and 80 μl of putative antagonist in assay buffer. Total count tubes received 20 μl of [3H]estradiol and 180 μl of assay buffer. After incubation overnight at 4° C., all but the total count tubes received 300 μl of dextran-coated charcoal suspension; tubes were agitated for 15 min and then centrifuged (1,000×g) for 15 min. Supernatants were decanted into counting vials, scintillant was added, and protein-bound tritium was determined by liquid scintillation counting.

Question: Which results are given for Cyclo[EMTOVNOGQ]?
Answer: expression of estrogen receptor-α (ERα) [1]: downregulation of expression of estrogen receptor-α (ERα); proliferation of human breast cancer lines in immunocompromised mice [2]: inhibit proliferation of human breast cancer lines

Question: For “QMTPVNPG (listed as Homo sapiens) [SEQ ID NO: 2]”, which “biological activity of stored inactive peptide after brief treatment with 4M urea” value [3] is on record?
Answer: The value was “restored its biological activity”.

Question: What about the “% Inhibition of E2-Stimulated Growth of Immature Mouse Uterus ± SE” value ([3]; Stored over 1 year (lyophilized, −20° C.), 1 μg per mouse i.p.) of the same compound?
Answer: Its value is 0 ± 2%.

Question: What about the “biological activity of gel filtration fraction of aged peptide” value ([3]; higher molecular weight fraction (FIG. 2b, left side of peak)) of the same compound?
Answer: Its value is “biologically inactive”.

Question: What about the “optimal dose for inhibition of estrogen-stimulated growth of mouse uterus” value ([3]; i.p., FIG. 1a) of the same compound?
Answer: The value was 1 μg/mouse.

Question: What about the “biological activity of gel filtration fraction of aged peptide” value ([3]; lower molecular weight fraction (FIG. 2b, right side of peak)) of the same compound?
Answer: Its value is “active”.

Question: And the “anti-estrotrophic activity as a function of storage time (shelf-life)” value ([3]; stored at −20° C. in the lyophilized state, 1 μg per mouse, FIG. 1b)?
Answer: The value was “diminished to insignificant levels after five weeks of storage”.

Question: And the “biological activity of aged peptide” value ([3]; stored in the lyophilized state at −20° C. for over one year)?
Answer: The value was “completely biologically inactive”.

Question: Which “uterotrophic effect of agent alone” value ([3]; i.p.) does the source give for `CC/C(=C(\c1ccccc1)c1ccc(OCCN(C)C)cc1)c1ccccc1` [tamoxifen] here?
Answer: Its value is “stimulate the growth of the immature mouse uterus”.

Question: And the “tumor volumes versus E2 alone group (Wilcoxon ranks-sum test)” value [4]?
Answer: Its value is “significantly different”.

Question: And the “growth (tumor volume) of MCF-7 xenografts in E2-supplemented SCID mice” value [4]?
Answer: Its value is “prevented growth; also recorded: no increase in tumor volume”.

Question: What about the “growth (tumor volume) of tamoxifen-resistant MCF-7 subline xenografts in E2-supplemented SCID mice” value [5] of the same compound?
Answer: The value was “resistant to tamoxifen in vivo; also recorded: only minimally effective”.

Question: What about the “growth (tumor volume) of T47D xenografts in E2-supplemented SCID mice” value [6] of the same compound?
Answer: Its value is “prevented growth”.

Question: And the “growth (tumor volume) of ER− MDA-MB-231 xenografts” value [7]?
Answer: The value was “Neither peptide nor tamoxifen were effective; also recorded: did not affect the growth”.

Question: What about the “users with uterine cancer as side effect” value [8] of the same compound?
Answer: The value was 0.2%.

Question: Which “inhibition of the uterotrophic effect of estradiol” value ([3]; listed as Pep) does the source give for “EMTOVNOG (EMT[Hyp]VN[Hyp]G; listed as Homo sapiens) [SEQ ID NO: 4]” here?
Answer: Its value is “significantly different”.

Question: And the “inhibition of the uterotrophic effect of estradiol” value ([3]; listed as peptide)?
Answer: Its value is “inhibited the uterotrophic effect of tamoxifen as well as that of estradiol”.

Question: And the “inhibition of the uterotrophic effect of tamoxifen” value (shortened to “inhibition … of tamoxifen”) [3]?
Answer: Its value is “significantly inhibited tamoxifen's uterotrophic effect”.

Question: What about the “inhibition … of tamoxifen” value ([3]; listed as Pep) of the same compound?
Answer: The value was “significantly different”.

Question: And the “inhibition … of tamoxifen” value ([3]; listed as peptide)?
Answer: The value was “inhibited the uterotrophic effect of tamoxifen”.

Question: And the “uterotrophic effect of agent alone” value ([3]; i.p.)?
Answer: Its value is “no uterotrophic effect whatsoever”.

Question: And the “tumor volumes versus E2 alone group (Wilcoxon ranks-sum test)” value [4]?
Answer: The value was “significantly different”.

Question: And the “growth (tumor volume) of MCF-7 xenografts in E2-supplemented SCID mice” value [4]?
Answer: The value was “prevented growth; also recorded: no significant increase in tumor volume”.

Question: What about the “tumor volumes versus E2 alone group (Wilcoxon Ranks Sum Test)” value ([5]; MCF-7 subline made resistant to tamoxifen, day 30, p<0.05) of the same compound?
Answer: Its value is “significantly different”.

Question: And the “growth (tumor volume) of tamoxifen-resistant MCF-7 subline xenografts in E2-supplemented SCID mice” value [5]?
Answer: Its value is “completely prevented the xenograft growth; also recorded: completely stopped the growth”.

Question: And the “tumor volumes versus E2 alone group (Wilcoxon Ranks Sum Test)” value ([6]; T47D, day 30, p<0.05)?
Answer: Its value is “significantly different”.

Question: And the “growth (tumor volume) of T47D xenografts in E2-supplemented SCID mice” value [6]?
Answer: Its value is “completely prevented tumor growth”.

Question: And the “differences in tumor volumes between groups” value ([7]; MDA-MB-231, FIG. 11)?
Answer: Its value is “no differences in tumor volumes”.

Question: And the “growth (tumor volume) of ER− MDA-MB-231 xenografts” value [7]?
Answer: Its value is “Neither peptide nor tamoxifen were effective; also recorded: had no effect on the growth”.

Question: And the “competition/interference with estrogen binding to the estrogen receptor” value ([9]; cell-free system)?
Answer: Its value is “does not interfere with the binding of [^3H]estradiol to the estrogen receptor”.

Question: And the “interference with E2 binding to ER” value ([9]; peptide concentration range of 10^−10M to 10^−5M)?
Answer: Its value is “no interference with E2 binding to ER”.

Question: Which “biological activity of stored inactive peptide after brief treatment with 4M urea” value [3] does the source give for “EMTPVNPG (listed as Homo sapiens) [SEQ ID NO: 6]” here?
Answer: Its value is “regenerated by 4M urea”.
